How the values were obtained:
[1] = target: T1, Kappa-type opioid receptor (Homo sapiens, UniProt P41145); experiment: Displacement of [3H]U-69,593 from human kappa opioid receptor expressed in CHO cell membranes
[2] = target: T2, Delta-type opioid receptor (Homo sapiens, UniProt P41143); experiment: Displacement of [3H]DPDPE from human delta opioid receptor expressed in CHO cell membranes
Mu-type opioid receptor [3] = target: T3, Mu-type opioid receptor (Homo sapiens, UniProt P35372); experiment: Displacement of [3H]DAMGO from human mu opioid receptor expressed in CHO cell membranes
T3 sequence (P35372 whole entry): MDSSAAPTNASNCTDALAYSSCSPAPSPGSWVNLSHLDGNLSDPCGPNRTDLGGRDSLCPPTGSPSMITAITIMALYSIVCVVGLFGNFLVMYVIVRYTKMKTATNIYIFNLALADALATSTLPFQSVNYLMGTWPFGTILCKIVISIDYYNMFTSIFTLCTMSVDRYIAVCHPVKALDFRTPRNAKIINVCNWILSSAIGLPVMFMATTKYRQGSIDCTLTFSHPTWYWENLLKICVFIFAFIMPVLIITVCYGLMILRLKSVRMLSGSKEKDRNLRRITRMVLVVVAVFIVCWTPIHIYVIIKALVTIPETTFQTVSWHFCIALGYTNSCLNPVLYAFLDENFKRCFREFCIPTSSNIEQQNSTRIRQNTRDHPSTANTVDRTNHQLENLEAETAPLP

CHO [4] = experiment: Selectivity ratio of Ki for human kappa opioid receptor expressed in CHO cell membranes to Ki for human delta opioid receptor expressed in CHO cell membranes; type: cell-based
CHO [5] = experiment: Selectivity ratio of Ki for human mu opioid receptor expressed in CHO cell membranes to Ki for human delta opioid receptor expressed in CHO cell membranes; type: cell-based
[6] = target: T1, Kappa-type opioid receptor; experiment: Agonist activity at human kappa opioid receptor expressed in CHO cell membranes by [35S]GTPgammaS binding assay relative to U-69,593; type: functional
Mu-type opioid receptor [7] = target: T3, Mu-type opioid receptor; experiment: Agonist activity at human mu opioid receptor expressed in CHO cell membranes by [35S]GTPgammaS binding assay; type: functional
[8] = target: T2, Delta-type opioid receptor; experiment: Agonist activity at human delta opioid receptor expressed in CHO cell membranes by [35S]GTPgammaS binding assay relative to SNC80; type: functional
[9] = target: T1, Kappa-type opioid receptor; experiment: Agonist activity at human kappa opioid receptor expressed in CHO cell membranes at 10 uM by [35S]GTPgammaS binding assay relative to U-69,593; type: functional
[10] = target: T1, Kappa-type opioid receptor; experiment: Agonist activity at human kappa opioid receptor expressed in CHO cell membranes by [35S]GTPgammaS binding assay; type: functional
[11] = target: T2, Delta-type opioid receptor; experiment: Agonist activity at human delta opioid receptor expressed in CHO cell membranes by [35S]GTPgammaS binding assay; type: functional
Mu-type opioid receptor [12] = target: T3, Mu-type opioid receptor; experiment: Agonist activity at human mu opioid receptor expressed in CHO cell membranes by [35S]GTPgammaS binding assay relative to DAMGO; type: functional
Mu-type opioid receptor [13] = target: T3, Mu-type opioid receptor; experiment: Agonist activity at human mu opioid receptor expressed in CHO cell membranes at 10 uM by [35S]GTPgammaS binding assay relative to DAMGO; type: functional

T2 sequence (P41143 whole entry): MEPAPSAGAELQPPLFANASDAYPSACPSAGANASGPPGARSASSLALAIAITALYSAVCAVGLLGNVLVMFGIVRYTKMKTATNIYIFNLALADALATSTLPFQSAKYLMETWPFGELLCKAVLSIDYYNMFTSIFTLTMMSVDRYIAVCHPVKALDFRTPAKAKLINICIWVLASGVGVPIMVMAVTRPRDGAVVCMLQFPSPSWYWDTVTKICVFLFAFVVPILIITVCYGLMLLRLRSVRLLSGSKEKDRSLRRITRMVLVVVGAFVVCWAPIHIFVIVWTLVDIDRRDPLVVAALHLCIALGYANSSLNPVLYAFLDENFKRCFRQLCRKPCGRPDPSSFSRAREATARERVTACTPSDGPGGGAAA
T1 sequence (P41145 whole entry): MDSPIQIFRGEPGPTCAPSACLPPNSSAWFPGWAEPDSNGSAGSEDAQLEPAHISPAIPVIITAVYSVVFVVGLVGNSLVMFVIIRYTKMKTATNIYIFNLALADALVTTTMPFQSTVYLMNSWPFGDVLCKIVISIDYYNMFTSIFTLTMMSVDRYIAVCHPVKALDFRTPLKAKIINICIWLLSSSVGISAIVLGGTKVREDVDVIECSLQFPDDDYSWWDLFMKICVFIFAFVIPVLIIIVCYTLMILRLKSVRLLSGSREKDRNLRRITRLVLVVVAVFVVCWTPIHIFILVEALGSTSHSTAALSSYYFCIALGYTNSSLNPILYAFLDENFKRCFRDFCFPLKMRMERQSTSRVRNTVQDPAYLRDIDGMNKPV

| SMILES | Ki [1] | Ki [2] | Ki (Mu-type opioid receptor [3]) | Ratio Ki (CHO [4]) | Ratio Ki (CHO [5]) | Emax [6] | EC50 (Mu-type opioid receptor [7]) | Emax [8] | Activity [9] | EC50 [10] | EC50 [11] | Emax (Mu-type opioid receptor [12]) | Activity (Mu-type opioid receptor [13]) |
| --- | --- | --- | --- | --- | --- | --- | --- | --- | --- | --- | --- | --- | --- |
| O=C1CCC[C@@]2(O)C3Cc4ccc(O)cc4[C@@]2(CCN3CC2CC2)C1 | 0.748 nM | 12.1 nM | 0.692 nM | – | – | – | – | – | – | – | – | – | – |
| O=C1CCC[C@@]2(O)[C@H]3Cc4ccc(O)cc4[C@@]2(CCN3CC2CC2)C1 | – | – | – | 0.062 | 0.057 | – | – | – | – | – | – | – | – |
| O=C1C[C@]23CCN(CC4CC4)[C@H](Cc4ccc(O)cc42)[C@]3(O)CC/C1=C\c1ccccc1 | – | – | – | 14.1 | 9 | 18.4% | – | – | – | – | – | – | – |
| O=C1/C(=C/c2ccccc2)C[C@@]2(O)[C@H]3Cc4ccc(O)c5c4[C@@]2(CCN3CC2CC2)[C@H]1O5 [BNTX] | 28.3 nM | 3.53 nM | 10.5 nM | 8 | 3 | – | – | – | – | – | – | – | – |
| O=C1C[C@]23CCN(CC4CC4)[C@H](Cc4ccc(O)cc42)[C@]3(O)C/C1=C/c1ccccc1 | 9.65 nM | 0.585 nM | 4.61 nM | 16.5 | 7.9 | – | 54.6 nM | 40.8% | 30% | > 10000 nM | 3.17 nM | 31.8% | – |
| O=C1C[C@]23CCN(CC4CC4)[C@H](Cc4ccc(O)cc42)[C@]3(O)CC/C1=C/c1ccccc1 | – | – | – | 1.8 | 5.3 | 39.4% | – | 27% | – | – | – | 38.6% | – |
| Oc1ccc2c(c1)[C@]13CCN(CC4CC4)[C@@H](C2)[C@]1(O)Cc1c([nH]c2ccccc12)C3 | – | – | – | 31.4 | 261 | 15.4% | – | 38.9% | – | – | – | – | 33% |
| O=C1C[C@]23CCN(CC4CC4)C(Cc4ccc(O)cc42)[C@]3(O)CC/C1=C\c1ccccc1 | 9.11 nM | 0.644 nM | 5.81 nM | – | – | – | – | – | – | 14.7 nM | > 10000 nM | – | – |
| O=C1C[C@]23CCN(CC4CC4)[C@H](Cc4ccc(O)cc42)[C@]3(O)C/C1=C\c1ccccc1 | 39.1 nM | 2.76 nM | 22 nM | 14.2 | 8 | 20.2% | > 10000 nM | 37% | – | 8.02 nM | 12.5 nM | – | 25.6% |
| Oc1ccc2c(c1)[C@]13CCN(CC4CC4)[C@H](C2)[C@]1(O)CCc1c([nH]c2ccccc12)C3 | – | – | – | 12.5 | 10.8 | 10% | – | 64.8% | – | – | – | 23.5% | – |
| Oc1ccc2c(c1)[C@]13CCN(CC4CC4)[C@@H](C2)[C@]1(O)Cc1cc2ccccc2nc1C3 | – | – | – | 10.7 | 23.8 | – | – | 82.6% | 28.1% | – | – | – | 20.8% |
| Oc1ccc2c(c1)[C@]13CCN(CC4CC4)[C@H](C2)[C@]1(O)CCc1cc2ccccc2nc1C3 | – | – | – | 1.9 | 7.7 | 43.9% | – | 104% | – | – | – | 31.2% | – |
| Oc1ccc2c(c1)[C@]13CCN(CC4CC4)C(C2)[C@]1(O)CCc1c([nH]c2ccccc12)C3 | 6.63 nM | 0.531 nM | 5.75 nM | – | – | – | 6.23 nM | – | – | 3.19 nM | 1.06 nM | – | – |
| Oc1ccc2c(c1)[C@]13CCN(CC4CC4)C(C2)[C@]1(O)Cc1c([nH]c2ccccc12)C3 | 2.97 nM | 0.0945 nM | 24.7 nM | – | – | – | > 10000 nM | – | – | 3.76 nM | 1.4 nM | – | – |
| O=C1CC[C@@]2(O)[C@H]3Cc4ccc(O)cc4[C@@]2(CCN3CC2CC2)C1 | 0.648 nM | 2.62 nM | 0.769 nM | 0.25 | 0.29 | – | – | – | – | – | – | – | – |
| O=C1C[C@]23CCN(CC4CC4)C(Cc4ccc(O)cc42)[C@]3(O)CC/C1=C/c1ccccc1 | 17.5 nM | 9.81 nM | 52.2 nM | – | – | – | 19.2 nM | – | – | 21.4 nM | 1.83 nM | – | – |
| Oc1ccc2c(c1)[C@]13CCN(CC4CC4)C(C2)[C@]1(O)CCc1cc2ccccc2nc1C3 | 4.3 nM | 2.3 nM | 17.6 nM | – | – | – | 11.6 nM | – | – | 28.4 nM | 7.32 nM | – | – |
| Oc1ccc2c(c1)[C@]13CCN(CC4CC4)C(C2)[C@]1(O)Cc1cc2ccccc2nc1C3 | 3.22 nM | 0.303 nM | 7.2 nM | – | – | – | > 10000 nM | – | – | > 10000 nM | 0.813 nM | – | – |

Source: ChEMBL document CHEMBL3785070, “Synthesis and evaluation of novel opioid ligands with a C-homomorphinan skeleton” (Bioorg Med Chem, 2016)
